Key:
[1] = test system: Rat osteoblast-like cells (ROS 17/2.8); assay: [3H]-thymidine incorporation, proliferation of osteoblast-like cells; assay type: cell-based; details: ROS 17/2.8, 18 hrs incubation, 2 hrs pulse
Description: Stimulation of osteoblast-like cell proliferation can be measured according to several art-recognized in vitro models. One such model is described in European Patent Publication No. 384,731, by Rodan et al, published Aug. 29, 1990, which is incorporated herein by reference. (Applicants have modified this method by reducing regent volumes to one-quarter those described and by utilizing Dulbecco's Modified eagle's Medium (DMEM).) In this model, proliferation (division) of, for example, rat osteoblast-like cells (rat osteosarcoma (ROS) cells, rat calvaria cells, etc.) is observed by measuring the amount of radiolabeled thymidine ([^3 H]thymidine) incorporated by these cells. ([^3 H]thymidine is "incorporated" by cellular DNA being synthesized as a result of cell proliferation.) The greater the level of [^3 H]thymidine measured, the greater the amount of proliferation of the osteoblast cells.
More specifically, a test sample (comprised of a test compound and osteoblast-like cells) and a control sample (comprised of only osteoblast-like cells) are pulsed with [^3 H]thymidine. The amount of [^3 H]thymidine incorporated by the cells is measured using a direct beta counter.
Rat osteoblast-like cells (ROS 17/2.8) are plated at 4×10^3 cells/well in a 96-well plate in Dulbecco's Modified eagle's Medium supplemented with 2% (v/v) Fetal Bovine Serum, and incubated for 6 hrs. Control (serum-free) medium and test medium (test sample and serum-free medium) are then added to the cells and this combination is incubated for 18 hrs. The cells are then pulsed with [^3 H]-thymidine (1 μCi/well) for 2 hrs. The medium is then removed, the cells are harvested onto glass fibre filters and the amount of [^3 H]-thymidine (counts per minute per well) incorporated into DNA is then determined using a direct beta counter. Values for control groups are then compared to values for treated groups.
(§1) The compound H-Tyr-D-Ala-Gly-Phe-D-Leu-OH ("DADLE") is screened to determine whether it stimulates proliferation of osteoblast-like cells. […] The medium is then removed, the cells are harvested onto glass fibre filters, and the amount of ^3 H-thymidine (counts per minute per well) incorporated into DNA is determined using a direct beta counter. […]
as §1, with “Tyr-D-Cys(S-t-butylthioether)-Gly-Phe-Leu-Thr(O-t-butylether) ("BUBUC")” for “H-Tyr-D-Ala-Gly-Phe-D-Leu-OH ("DADLE")”

[2] = test system: human subject with postmenopausal osteoporosis or low bone mass; assay: treatment of human subject with osteoporosis, vertebral density by dual-energy photon absorptiometry; assay type: in vivo
Procedure: A human subject weighing about 60 kg (132 lbs), suffering from postmenopausal osteoporosis, is treated by a method of this invention. Specifically, for two years, the enkephalin-degrading enzyme inhibitor DL-3-mercapto-2-benzylpropanoylglycine is administered orally, in a cyclical regimen, where each cycle consists of an active period of 28 days during which a tablet containing 160 mg of said inhibitor is administered each day, followed by a non-active period of 28 days during which the subject receives a daily supplement of calcium (1,000 mg/day), with repeat of cycle.
A human subject weighing about 60 kg (132 lbs), suffering from postmenopausal osteoporosis, is treated by a method of this invention. Specifically, for two years, the compound H-Tyr-D-Ala-Gly-Phe-D-Leu-OH ("DADLE") is administered to the subject, in a cyclical regimen, where each cycle consists of an active period of 28 days during which a solution containing 30 mg of DADLE is administered intravenously every day, followed by a non-active period of 28 days during which the patient receives a daily supplement of calcium (1,000 mg/day), with repeat of cycle.
(§2) A human subject weighing about 60 kg (132 lbs), suffering from postmenopausal osteoporosis, is treated by a method of this invention. Specifically, for two years, an enkephalin of the formula Tyr-D-Cys(S-t-butylthioether)-Gly-Phe-Leu-Thr(O-t-butylether) ("BUBUC") is administered to the subject, in a cyclical regimen, where each cycle consists of an active period of 28 days during which a solution containing 30 mg of BUBUC is intravenously administered each day, followed by a non-active period of 28 days during which the patient receives a daily supplement of calcium (1,000 mg/day), with repeat of cycle.
as §2, with “years, the” for “years, an”, “enkephalin secretagogue Tyr-Arg^1,” for “enkephalin of the formula Tyr-D-Cys(S-t-butylthioether)-Gly-Phe-Leu-Thr(O-t-butylether) ("BUBUC")”, “of Tyr-Arg” for “of BUBUC”, “the subject” for “the patient”, “cycle. […]” for “cycle.”
A human subject weighing about 60 kg (132 lbs), suffering from postmenopausal osteoporosis, is treated by a method of this invention. Specifically, each day for five years, the subject is administered 3 tablets, comprised as follows.
A human subject weighing about 60 kg (132 lbs) is evaluated approximately four years after spontaneous menopause, and is found to have low bone mass. The subject is then treated by a method of this invention to treat osteoporosis. Specifically, once each month for five years, the subject is administered, via intravenous injection, 5 ml of a solution comprised as follows.

O=C(O)CNC(=O)C(CS)Cc1ccccc1 (racemic) [DL-3-mercapto-2-benzyl-propanoylglycine]
[3H]-thymidine incorporation (proliferation) vs control [1]: significantly stimulated proliferation of the osteoblast-like cells
density of vertebrae / bone mass ([2]; Example 7: 3 tablets of 50.0 mg each day for five years): no significant loss in bone mass has occurred
density of vertebrae / bone mass ([2]; oral tablet 160 mg daily, 28 days active / 28 days calcium, two years): an increase in bone mass

Source: US5403824A, “Methods for the treatment of osteoporosis” (The Procter & Gamble Company, priority 1993, dated 1995)
